Laboratory results as given in patent publication US11484591B2, “Chemoprevention using controlled-release formulations of anti-interleukin 6 agents, synthetic vitamin A analogues or metabolites, and estradiol metabolites” (OHIO STATE INNOVATION FOUNDATION, priority 2016, dated 2022).
Entries after “also recorded” stand apart in the source; their conditions may differ.

Assays:
[1] = tested on: IL-6; assay: IL-6 release from OSCC cells (ELISA); assay type: cell-based, human; settings: 5 μM, fresh treatment q.d., base medium, 48 h
Description: Conditioned media from 24-hour sera-deprived JSCC-1, JSCC-2 and JSCC3 cells were analyzed using the Proteome Profiler Human Cytokine XL Array (R&D Systems, Minneapolis, Minn.), with image capture and analyses via the Li-Cor Odyssey imager and Image Studio software (Li-Cor Biosciences, Lincoln, Nebr.). Sera-free conditioned media for IL-6, VEGF, TGF-α and EGF were analyzed by ELISAs (R&D Systems, Minneapolis, Minn.), with data expressed as pg/10^6 cells.
) 0.01% DMSO (vehicle control), 2) 5 μM 4-HPR, 3) 2.5 μM 2-ME, 4) 1 μg/ml tocilizumab (TOC, […]) 5) 5 μM 4-HPR+2.5 μM 2-ME, 6) 5 μM 4-HPR+1 μg/ml TOC, 7) 2.5 μM 2-ME+1 μg/ml TOC, 8) 5 μM 4-HPR+2.5 μM 2-ME+1 μg/ml TOC. Following treatment, conditioned media were collected (ELISAs for IL-6, sIL-6R, TGF-α, VEGF, EGF, R&D Systems, Minneapolis, Minn.) and nuclear and cytosolic lysates (Nuclear Extract Kit, Active Motif, Carlsbad, Calif.) isolated for EMSAs (STAT3, NFκB p50 and p65, TransAM Transcription Factor ELISAs, Active Motif) and cytosolic and nuclear extracts for Westerns (NE-PER Nuclear and Cytoplasmic Extraction Reagents, ThermoFisher Scientific, Waltham Mass.). […]

[2] = tested on: JSCC1 cells; assay: Tumorsphere formation and retention of proliferative capacity; assay type: cell-based, human
Description: JSCC1 cells were seeded at density of 5×10^5 cells in Advanced DMEM+5% FBS+1× GlutaMAX Supplement in Ultra-Low Attachment surface T-25 flasks with DMSO control (0.05%) and 5 μM 4-HPR treatment. Cell suspension cultures were treated for 3 days with fresh treatment every 24 h. While control cultures formed tumorspheres by 24 h, 4-HPR treated cellular interactions were limited to small cell aggregates. (Image scale at 100×.)
Following the treatment described in FIG. 4A above, the JSCC1 control and 4-HPR treated cells were returned to standard tissue culture flasks for seven days in 4-HPR free complete medium (Advanced DMEM+5% FBS+1× GlutaMAX Supplement). […] (Image scale 100×.)
5×10^5 JSCC1 cells (tumorsphere-formation competent unlike JSCC2 and JSCC3 cells) were plated in complete medium with either vehicle control (0.01% DMSO) or 5 μM 4-HPR in Corning Ultra-Low attachment tissue culture flasks (Sigma-Aldrich, St. Louis, Mo.) Suspension cultures received fresh medium and treatment q d for 7 days, with daily images capture via the Nikon DS-Ri+NIS Element. After 7 days, cells and medium were harvested, centrifuged, and cells replated in standard culture flasks containing complete medium. Images were obtained daily and cells harvested after 7 days in culture. Cell number (hemocytometer counts) and viability (trypan blue exclusion) were obtained.

[3] = 4-HPR release from PLGA implants, tumor and sera levels (UPLC/UV); assay type: in vivo, nude mice
Source text: Determination of 4-HPR tumor levels entailed recording tumor wet mass, addition of internal standard (acitretin) and RIPA lysis buffer, followed by homogenization, addition of acetonitrile and centrifugation. Acetretin percent recovery was compared to a RIPA buffer/acetonitrile extraction control solution spiked with equivalent amount of acetretin and 4-HPR. Sera preparation entailed addition of acetretin and acetonitrile, sonication, followed by centrifugation.
SCC2095sc cells [10^6 cells suspended in 100 μl Matrigel (Corning Life Sciences, Corning, N.Y.)] were subcutaneously injected in the flanks of 6 week old male nude mice (n=6 per treatment group). Tumor measurements were recorded daily with calipers (greatest length and greatest width) and final tumor volumes calculated via tumor volume V=(length×width)×½. Treatment groups consisted of: 1) control (PBS injections)+blank (no drug) PLGA implants, 2) 2-ME (1 μg/100 μl PBS, b.i.d.)+blank PLGA implant, 3) 4-HPR releasing PLGA implant+PBS injections, 4) TOC q.d. (0.3 μg/100 μl PBS)+PLGA blank implant, 5) 2-ME (1 μg/100 μl PBS, b.i.d.)+4-HPR releasing PLGA implant, 6) 2-ME (1 μg/100 μl PBS, b.i.d.)+TOC q.d. (0.3 μg/100 μl PBS)+blank PLGA implant, 7) TOC q.d. (0.3 μg/100 μl PBS)+4-HPR releasing PLGA implant, 8) 2-ME (1 μg/100 μl PBS, b.i.d.)+TOC q.d. (0.3 μg/100 μl PBS)+4-HPR releasing PLGA implant. By day 14 post injection, all mice had measurable tumors and treatment began on day 15. […] Pretreatment mean tumor volumes therefore varied among treatment groups. PLGA implants (via trocar) and injections were placed in the center of the tumor. At day 28 post OSCC xenograft placement final tumor measurements were obtained, the mice were euthanized and OSCC tumors along with lung, liver and sera were harvested for pharmacokinetic, histologic and IHC analyses (Ki-67, cleaved caspase-3 and involucrin). Image analyses of the nuclear stains (Ki-67 and cleaved caspase 3) were conducted using Image-Pro Plus 6.2 software (Media Cybernetics, Rockville, Md.).

[4] = cited from earlier work
[5] = tested on: apoptosis; settings: reference 21; cited from earlier work
[6] = JSCC1 cells pretreated with 5 μM, 7 days in 4-HPR free complete medium

detectable levels in the sera ([3]; 4-HPR or its metabolites, any animals): absence of any detectable levels
concentration at 28 days post xenograft placement (treatment began on day 15) ([3]; male, nude, mouse, serum, all mice that received PLGA implants, below LLOQ): < 50 ng/mL
SMILES: CC1=C(/C=C/C(C)=C/C=C/C(C)=C/C(=O)Nc2ccc(O)cc2)C(C)(C)CCC1 [4-HPR, 4-hydroxy(phenyl)retinamide]
increase of IL-6 release ([1]; JSCC1 cells): ~50%
increase of IL-6 release ([1]; JSCC2 cells): ~20%
reattachment and viability after re-plating in standard flasks [2, 6]: failed to reattach; also recorded: failed to reattach and were uniformly non-vital
trypan blue uptake after re-plating [2, 6]: 100%
tumorsphere formation ([2]; JSCC1 cells, 5 μM, low attachment flasks): inhibits tumorsphere formation
anoikis in tumorsphere-competent cells ([2]; discussion): induced anoikis
log P [4]: 8.03
apoptosis-inducing concentration [5]: 10 µM
